Data from US7091345B2, “Amino-substituted dihydropyrimido[4,5-D]pyrimidinone derivatives” (Hoffmann-La Roche Inc., priority 2002, dated 2006).
Read-outs that look alike come from different tables or passages of the source.

Columns and labels:
Src (p60^c-src) = target: T1, Src (p60^c-src) (Homo sapiens, UniProt P12931); assay: SRC-Inhibitor-Assay, time-resolved fluorescence kinase assay (Src); type: biochemical; conditions: ATP 5 μM, enzyme 2.5 U/ml, pre-incubation 15 min at 15° C.
T1 construct: purchased Upstate (UBI)
T1 sequence (P12931 whole entry): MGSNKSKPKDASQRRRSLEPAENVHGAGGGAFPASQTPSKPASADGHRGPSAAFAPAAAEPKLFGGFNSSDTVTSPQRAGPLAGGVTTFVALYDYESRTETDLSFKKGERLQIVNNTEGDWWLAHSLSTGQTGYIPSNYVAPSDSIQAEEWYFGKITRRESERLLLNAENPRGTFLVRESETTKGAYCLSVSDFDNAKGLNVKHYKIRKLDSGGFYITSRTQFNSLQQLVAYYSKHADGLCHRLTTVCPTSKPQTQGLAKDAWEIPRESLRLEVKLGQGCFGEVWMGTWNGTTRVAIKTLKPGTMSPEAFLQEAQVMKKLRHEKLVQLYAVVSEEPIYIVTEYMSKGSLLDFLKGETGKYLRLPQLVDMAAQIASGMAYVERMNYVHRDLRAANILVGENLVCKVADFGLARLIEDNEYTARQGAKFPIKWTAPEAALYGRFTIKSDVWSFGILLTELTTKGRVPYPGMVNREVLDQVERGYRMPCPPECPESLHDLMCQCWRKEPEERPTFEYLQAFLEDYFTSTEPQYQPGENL
Experimental: (§1) The activity of the compounds according to this invention as inhibitors for the src-family tyrosine kinases was shown by using the following assay.
(§2) SRC-Inhibitor-Assay Parameters:
(§3) Assay buffer: 4 mM MgCl2 • 2 mM TCEP • 50 mM HEPES • 0,1% Tween 20 • pH 7.3
(§4) Material: Eu-labelled phosphotyrosine antibody:—for Lck Cisbio Mab PT66-K, for Src EG&G Wallac PT66 Eu-W1024 (all commercially available). Peptides: Ro: NH2-A-E-E-E-I-Y-G-E-F-E-A-K-K-K-K-CONH2, and Ja133-Ro: Ja133-G-Aminocaprylic acid-A-E-E-E-I-Y-G-E-F-E-A-K-K-K-K-CONH2, wherein Ja133 is LightCycler-Red 640-N-hydroxy succinimide ester; whereby both peptides were synthesized by an optimized solid phase peptide synthesis protocol (Merrifield, Fed. Proc. Fed. Amer. Soc. Exp. Biol. 21 (1962) 412) on a Zinsser SMP350 peptide synthesizer. Shortly, the peptide was assembled on 160 mg (22.8 μmol scale) of a Rink-Linker modified polystyrene solid phase by repeatedly conjugating an twenty fold excess of amino acids each protected by temporary piperidine labile Fmoc- and permanent acid labile tert-Bu-, BOC— and Otert-Bu-groups depending on the side chain function. The substrate sequence AEEEIYGEFEAKKKK was N-terminal additionally mounted with the spacer amino acids Aminocaprylic acid and Glycin. After cleavage of the N-terminal temporary protecting group the still attached and protected peptide was labeled with a 1.5 fold amount of LightCycler-Red 640-N-hydroxy succinimide ester (purchased by Roche Diagnostics GmbH) and triethylamine. After 3 hrs. the resin was washed with Dimethylformamide and Isopropanol until the eluates of the blue resin got colourless. […] The substrate was finally isolated by a preparative reverse phase HPLC purification. The purification yielded 12.2 mg RP-HPLC single peak pure blue material (lyophilisate). The identity was proven by MALDI mass spectroscopy [2720.0]. Enzymes: Upstate Lck (p56^lck, active), Upstate Src (p60^c-src, partially purified) were purchased from UBI. Time-resolved Fluorescence Assay: Reader: Perkin Elmer, Wallac Viktor 1420-040 multilabel counter; Liquid handling system: Beckman Coulter, Biomek 2000. ATP, Tween 20, HEPES were purchased from Roche Molecular Biochemicals, MgCl2 and MnCl2 were purchased from Merck Eurolab, TCEP was purchased from Pierce, 384 Well low volume fluorescence plates was purchased from Falcon. Assay Description:
(§5) At first the enzyme is pre-incubated for 15 min. at 15° C. in aqueous solution with corresponding amounts of inhibitors according to this invention. Then the phosphorylation reaction is started by adding a reaction mixture, containing ATP, Peptide and PT66, and subsequent shaking. The proceeding of this reaction is immediately monitored using time resolved fluorescence spectroscopy in a suitable well plate reader.
(§6) The IC50-values can be obtained from the reaction rates by using a non-linear curve fit (Excelfit).

Lck (p56^lck) = target: T2, Lck (p56^lck) (Homo sapiens, UniProt P06239); assay: SRC-Inhibitor-Assay, time-resolved fluorescence kinase assay (Lck); type: biochemical; conditions: ATP 5 μM, enzyme 2.5 U/ml, pre-incubation 15 min at 15° C.
T2 construct: purchased Upstate (UBI)
T2 sequence (P06239 whole entry, species assumed): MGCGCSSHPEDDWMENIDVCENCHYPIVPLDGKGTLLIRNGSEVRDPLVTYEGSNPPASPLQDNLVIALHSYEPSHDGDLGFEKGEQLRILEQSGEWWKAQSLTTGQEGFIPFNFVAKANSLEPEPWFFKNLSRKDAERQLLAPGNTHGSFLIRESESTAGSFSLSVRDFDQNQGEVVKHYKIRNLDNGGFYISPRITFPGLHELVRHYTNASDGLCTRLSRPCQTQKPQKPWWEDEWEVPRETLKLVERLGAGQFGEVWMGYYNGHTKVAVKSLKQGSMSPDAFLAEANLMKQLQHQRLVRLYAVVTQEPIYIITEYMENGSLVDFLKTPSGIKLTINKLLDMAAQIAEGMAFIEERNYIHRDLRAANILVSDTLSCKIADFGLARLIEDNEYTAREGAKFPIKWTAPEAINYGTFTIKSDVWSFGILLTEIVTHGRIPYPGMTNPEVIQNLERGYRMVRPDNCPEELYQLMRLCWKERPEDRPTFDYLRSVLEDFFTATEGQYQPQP
Experimental: as §1, §2, §3, §4, §5, §6

[1] = Pharmacokinetic study in mice, plasma levels after single p.o. dose; type: in vivo; conditions: male NMRI mice, p.o. single dose 30 mg/kg as micro-suspension, dose-normalised
Experimental: A preferred pharmaceutical preparation was obtained by using the following procedure: • 1. Weigh 4.0 g glass beads in custom made tube GL 25, 4 cm (the beads fill half of the tube). • 2. Add 50 mg compound, disperse with spatulum and vortex. • 3. Add 2 ml gelatin solution (weight beads: gelatin solution=2:1) and vortex. • 4. Cap and wrap in aluminium foil for light protection. • 5. Prepare a counter balance for the mill. • 6. Mill for 4 hours, 20/s in a Retsch mill (for some substances up to 24 hours at 30/s). • 7. Extract suspension from beads with two layers of filter (100 μm) on a filter holder, coupled to a recipient vial by centrifugation at 400 g for 2 min. • 8. Move extract to measuring cylinder. • 9. Repeat washing with small volumes (here 1 ml steps) until final volume is reached or extract is clear. • 10. Fill up to final volume with gelatin and homogenise.
The above described preparation yields micro-suspensions of the compounds of formula I with particle sizes between 1 and 10 μm. The suspensions are suitable for oral applications and were used in the in vivo pharmacokinetic testings described below.
To male NMRI mice of 29–35 g body weight the compounds according to this invention were given p.o. as micro-suspensions (7.5% modified gelatine and 0.22% NaCl) in doses of 30 mg/kg (Drug concentration: 3 mg/mL. Administered volume: 10 mL/kg) and as single dose administration. Study Protocol:
Animals were fasted overnight up to 4 hrs. after administration of the compound. For each single p.o. dose the mice were allocated to 3 groups with 4 animals each. Blood samples are taken from group 1 at 0.5, 3 and 24 hours, from group 2 at 1 and 6 hours, and from group 3 at 2 and 8 hours.
Blood samples of about 200 μl were obtained by retro-orbital puncture. Plasma samples were obtained from heparinized/EDTA blood by centrifugation at room temperature, and stored frozen at −20° C. until analysis.
Plasma was deproteinated and subsequently analysed for plasma levels of the compound by a compound specific HPLC-MS method. WinNonlin™ was used to calculate the pharmacokinetic parameters.

## CN1C(=O)N(c2ccccc2Br)Cc2cnc(Nc3ccc4c(c3)OCC(CO)O4)nc21 (stereo not shown) [Example 1, 3-(2-bromo-phenyl)-7-(2-hydroxymethyl-2,3-dihydro-benzo[1,4]dioxin-6-ylamino)-1-methyl-3,4-dihydro-1H-pyrimido[4,5-d]pyrimidin-2-one]
Src (p60^c-src); read-out: IC 50 (src)
  IC50: 7.5 nM
Lck (p56^lck); read-out: IC 50 (lck)
  IC50: 6.3 nM
[1]
  AUC = area under the curve from T = 0 to T = 24 hrs: 379 (h * ng/ml))/(mg/kg)
other
  melting point: 156 to 158 °C

## CC(=O)N1CCC2(CC1)Oc1ccc(Nc3ncc4c(n3)N(C)C(=O)N(c3ccccc3Br)C4)cc1O2 [Example 6, 3-(2-bromo-phenyl)-3,4-dihydro-7-(1′-acetyl-spiro[1,3-benzodioxolo-2,4′-piperidine]-5-yl)amino-1-methyl-pyrimido[4,5-d]pyrimidin-2(1H)-one]
[1]
  AUC = area under the curve from T = 0 to T = 24 hrs: 315 (h * ng/ml))/(mg/kg)

## CN1C(=O)N(c2ccccc2Br)Cc2cnc(Nc3ccc4c(c3)OC3(CCNCC3)O4)nc21 [Example 7, 3-(2-bromo-phenyl)-3,4-dihydro-7-(spiro[1,3-benzodioxolo-2,4′-piperidine]-5-yl)amino-1-methyl-pyrimido[4,5-d]pyrimidin-2(1H)-one]
Src (p60^c-src); IC 50 (src)
  IC50: 2 nM
Lck (p56^lck); IC 50 (lck)
  IC50: 2.4 nM
[1]
  AUC = area under the curve from T = 0 to T = 24 hrs: 813 (h * ng/ml))/(mg/kg)

## CN1C(=O)CSc2cc(Nc3ncc4c(n3)N(C)C(=O)N(c3c(F)cccc3Br)C4)ccc21 [Example 13-12, 3-(2-bromo-6-fluoro-phenyl)-1-methyl-7-(4-methyl-3-oxo-3,4-dihydro-2H-benzo[1,4]thiazin-7-ylamino)-3,4-dihydro-1H-pyrimido[4,5-d]pyrimidin-2-one]
Src (p60^c-src); read-out: IC 50 (src)
  IC50: 4.2 nM
Lck (p56^lck); read-out: IC 50 (lck)
  IC50: 14 nM
[1]
  AUC = area under the curve from T = 0 to T = 24 hrs: 592 (h * ng/ml))/(mg/kg)
other
  melting point: 145 to 149 °C

## CN1C(=O)N(c2ccccc2Br)Cc2cnc(Nc3ccc4c(c3)OCC(CN3CCCC3)O4)nc21 (stereo not shown) [Example 13-21, 3-(2-bromo-phenyl)-1-methyl-7-(2-pyrrolidin-1-ylmethyl-2,3-dihydro-benzo[1,4]dioxin-6-ylamino)-3,4-dihydro-1H-pyrimido[4,5-d]pyrimidin-2-one]
[1]
  AUC = area under the curve from T = 0 to T = 24 hrs: 120 (h * ng/ml))/(mg/kg)
other
  melting point: 201 to 203 °C

## CN1CCS(=O)(=O)c2cc(Nc3ncc4c(n3)N(C)C(=O)N(c3ccccc3Br)C4)ccc21 [Example 13-26, 3-(2-bromo-phenyl)-1-methyl-7-(4-methyl-1,1-dioxo-1,2,3,4-tetrahydro-1lambda*6*-benzo[1,4]thiazin-7-ylamino)-3,4-dihydro-1H-pyrimido[4,5-d]pyrimidin-2-one]
other
  melting point: 250 to 251 °C

## O=C1CS(=O)(=O)c2cc(Nc3ncc4c(n3)NC(=O)N(c3c(F)cccc3Br)C4)ccc2N1 [Example 13-29]
Src (p60^c-src); read-out: IC 50 (src)
  IC50: 2.5 nM
Lck (p56^lck); read-out: IC 50 (lck)
  IC50: 6.7 nM

## CN1C(=O)N(c2c(F)cccc2Br)Cc2cnc(Nc3ccc4c(c3)OC3(CCNCC3)O4)nc21 [Example 13-46, 3-(2-bromo-6-fluoro-phenyl)-3,4-dihydro-7-(spiro[1,3-benzodioxolo-2,4′-piperidine]-5-yl)amino-1-methyl-pyrimido[4,5-d]pyrimidin-2(1H)-one]
Src (p60^c-src); IC 50 (src)
  IC50: 2.3 nM
Lck (p56^lck); IC 50 (lck)
  IC50: 2.6 nM
[1]
  AUC = area under the curve from T = 0 to T = 24 hrs: 234 (h * ng/ml))/(mg/kg)
other
  melting point: 146 to 153 °C

## COc1ccc(Br)c(N2Cc3cnc(Nc4ccc5c(c4)S(=O)(=O)CCO5)nc3N(C)C2=O)c1 [Example 13-48, 3-(2-Bromo-5-methoxy-phenyl)-7-(4,4-dioxo-3,4-dihydro-2H-4λ^6-benzo[1,4]oxathiin-6-ylamino)-1-methyl-3,4-dihydro-1H-pyrimido[4,5-d]pyrimidin-2-one]
Src (p60^c-src); read-out: IC 50 (src)
  IC50: 72.8 nM
Lck (p56^lck); read-out: IC 50 (lck)
  IC50: 37.5 nM

## COc1cccc(F)c1N1Cc2cnc(Nc3ccc4c(c3)S(=O)(=O)CCO4)nc2N(C)C1=O [Example 13-49, 7-(4,4-Dioxo-3,4-dihydro-2H-4λ^6-benzo[1,4]oxathiin-6-ylamino)-3-(2-fluoro-6-methoxy-phenyl)-1-methyl-3,4-dihydro-1H-pyrimido[4,5-d]pyrimidin-2-one]
Src (p60^c-src); read-out: IC 50 (src)
  IC50: 7.2 nM
Lck (p56^lck); read-out: IC 50 (lck)
  IC50: 5.4 nM

## CN1C(=O)N(c2c(F)cccc2C#N)Cc2cnc(Nc3ccc4c(c3)S(=O)(=O)CCO4)nc21 [Example 13-53, 2-[7-(4,4-Dioxo-3,4-dihydro-2H-4λ^6-benzo[1,4]oxathiin-6-ylamino)-1-methyl-2-oxo-1,4-dihydro-2H-pyrimido[4,5-d]pyrimidin-3-yl]-3-fluoro-benzonitrile]
Src (p60^c-src); read-out: IC 50 (src)
  IC50: 4.3 nM
Lck (p56^lck); read-out: IC 50 (lck)
  IC50: 12.9 nM

## CCN(CC)CCOc1ccc(Nc2ncc3c(n2)N(C)C(=O)N(c2ccccc2Br)C3)cc1 [Reference cpd 43 from WO 00/24744A, 3-(2-bromo-phenyl)-7-[4-(2-diethylamino-ethoxy)-phenylamino]-1-methyl-3,4-dihydro-1H-pyrimido[4,5-d]pyrimidin-2-one, reference compound]
[1]
  AUC = area under the curve from T = 0 to T = 24 hrs: 69.3 (h * ng/ml))/(mg/kg)
